# Tests used:
# [1] = test system: cotton, oilseed rape, sugar beet and Gramineae crops such as barley, wheat, rye, millet, corn or rice; test: Compatibility with crop plants (greenhouse, visual scoring); type: in vivo; details: herbicide/safener combination, above all with safeners II-1, II-9, III-1, b-11, b-14, IX-A3; pre-emergence method or post-emergence method; four to five weeks after application
# Source text: In further greenhouse trials, seeds of a relatively large number of crop plants and weeds were placed into sandy loam soil and covered with soil. Some of the pots were immediately treated as described in Section 1, the others were placed in a greenhouse until the plants had developed two to three true leaves and were then sprayed with various dosages of the herbicide/safener combinations according to the invention, as described in Section 2.
# [2] = test system: Sinapis alba, Chrysanthemum segetum, Avena sativa, Stellaria media, Echinochloa crus-galli, Lolium multiflorum, Setaria viridis, Abutilon theophrasti …; test: Pre-emergence action against weeds (greenhouse pot test, optical scoring); type: in vivo, monocotyledonous and dicotyledonous weed plants; details: herbicide/safener combination, above all with safeners II-1, II-9, III-1, b-11, b-14, IX-A3; pre-emergence method; 500 g or less of herbicide (A) per hectare; 3 to 4 weeks
# Source text: Seeds or rhizome pieces of monocotyledonous and dicotyledonous weed plants were placed in sandy loam soil in cardboard pots and covered with soil. The active compounds (A) and (B), formulated in the form of wettable powders or emulsion concentrates, were then applied to the surface of the covering soil in various dosages as aqueous suspensions or emulsions using a water application rate of 300 to 800 l/ha (converted).
# After the treatment, the pots were placed in a greenhouse and kept under good growth conditions for the weeds. Optical scoring of the damage to the plants or emerged plants was carried out after emergence of the test plants after a trial period of 3 to 4 weeks, in comparison to untreated controls. As shown by the results, the tested herbicide/safener combinations have good herbicidal pre-emergence activity against a broad spectrum of weed grasses and broad-leaved weeds.
# [3] = test system: Sinapis alba, Echinochloa crus-galli, Lolium multiflorum, Chrysanthemum segetum, Setaria viridis, Abutilon theophrasti, Amaranthus retroflexus, Panicum …; test: Post-emergence action against weeds (greenhouse pot test, visual scoring); type: in vivo, monocotyledonous and dicotyledonous weeds; details: herbicide/safener combination, above all with safeners II-1, II-9, III-1, b-11, b-14, IX-A3; post-emergence method, three-leaf stage; 500 g or less of herbicide (A) per hectare; three to four weeks
# Experimental: Seeds or rhizome pieces of monocotyledonous and dicotyledonous weeds were placed into sandy loam soil in plastic pots, covered with soil and grown in a greenhouse under good growth conditions. Three weeks after sowing, the test plants were treated at the three-leaf stage. The compounds according to the invention, formulated as wettable powders or as emulsion concentrates, were sprayed onto the green parts of the plants at various dosages using a water application rate of 300 to 800 l/ha (converted). The test plants were stood in the greenhouse under optimum growth conditions for about three to four weeks, and the action of the preparations was then scored visually in comparison to untreated controls. Post-emergence, too, the herbicide/safener combinations according to the invention have good herbicidal activity against a broad spectrum of economically important weed grasses and broad-leaved weeds.
SMILES,damage to crop plants (visual scoring) [1],herbicidal activity against harmful plants (optical scoring of damage vs untreated controls) [2],herbicidal activity against harmful plants (visual scoring vs untreated controls) [3]
CC1(C)CC(S(=O)(=O)C(Cl)c2ccccc2)=NO1 (stereo not drawn) [I-1.1],did not cause any damage,very good herbicidal activity,very good herbicidal activity
CC1(C)CC(S(=O)(=O)C(Cl)c2cc(F)ccc2F)=NO1 (stereo not drawn) [I-2.1],did not cause any damage,very good herbicidal activity,very good herbicidal activity
CCC1(C)CC(S(=O)(=O)C(Cl)c2cc(F)ccc2F)=NO1 (stereo not drawn) [I-2.2],did not cause any damage,very good herbicidal activity,very good herbicidal activity
CC1(C)CC(S(=O)(=O)C(Cl)c2c(F)cccc2F)=NO1 (stereo not drawn) [I-3.1],did not cause any damage,very good herbicidal activity,very good herbicidal activity
CCC1(C)CC(S(=O)(=O)C(Cl)c2c(F)cccc2F)=NO1 (stereo not drawn) [I-3.2],did not cause any damage,very good herbicidal activity,very good herbicidal activity
CC1(C)CC(S(=O)(=O)C(Cl)c2cc(C(F)(F)F)ccc2F)=NO1 (stereo not drawn) [I-4.1],did not cause any damage,very good herbicidal activity,very good herbicidal activity
CC1(C)CC(S(=O)(=O)C(Cl)c2c(F)cccc2Cl)=NO1 (stereo not drawn) [I-5.1],did not cause any damage,very good herbicidal activity,very good herbicidal activity
CC1(C)CC(S(=O)(=O)C(Cl)c2ccccc2Cl)=NO1 (stereo not drawn) [I-6.1],did not cause any damage,very good herbicidal activity,very good herbicidal activity
CC1(C)CC(S(=O)(=O)C(Cl)c2ccccc2OC(F)(F)F)=NO1 (stereo not drawn) [I-10.1],did not cause any damage,very good herbicidal activity,very good herbicidal activity
CCC1(C)CC(S(=O)(=O)C(Cl)c2cc(C(F)(F)F)ccc2Cl)=NO1 (stereo not drawn) [I-98.2],did not cause any damage,very good herbicidal activity,very good herbicidal activity
CC1(C)CC(S(=O)(=O)C(Cl)c2c(Cl)cccc2Cl)=NO1 (stereo not drawn) [I-109.1],did not cause any damage,very good herbicidal activity,very good herbicidal activity
CC1(C)CC(S(=O)(=O)C(Cl)c2c(F)cccc2C(F)(F)F)=NO1 (stereo not drawn) [I-117.1],did not cause any damage,very good herbicidal activity,very good herbicidal activity
CC1(C)CC(S(=O)(=O)C(Cl)c2cc(F)cc(F)c2F)=NO1 (stereo not drawn) [I-129.1],did not cause any damage,very good herbicidal activity,very good herbicidal activity
Cn1nc(C(F)(F)F)c(C(Cl)S(=O)(=O)C2=NOC(C)(C)C2)c1OC(F)F (stereo not drawn) [I-206.1],did not cause any damage,very good herbicidal activity,very good herbicidal activity
Cn1nc(C(F)(F)F)c(C(Cl)S(=O)(=O)C2=NOC(C)(C)C2)c1Cl (stereo not drawn) [I-216.1],did not cause any damage,very good herbicidal activity,very good herbicidal activity
CCC1(C)CC(S(=O)(=O)C(Cl)c2c(C(F)(F)F)nn(C)c2Cl)=NO1 (stereo not drawn) [I-216.2],did not cause any damage,very good herbicidal activity,very good herbicidal activity
CC1(C)CC(S(=O)(=O)C(F)c2cc(F)ccc2F)=NO1 (stereo not drawn) [I-249.1],did not cause any damage,very good herbicidal activity,very good herbicidal activity
CC1(C)CC(S(=O)(=O)C(F)c2c(F)cccc2F)=NO1 (stereo not drawn) [I-250.1],did not cause any damage,very good herbicidal activity,very good herbicidal activity
Cn1nc(C(F)(F)F)c(C(F)S(=O)(=O)C2=NOC(C)(C)C2)c1OC(F)F (stereo not drawn) [I-260.1],did not cause any damage,very good herbicidal activity,very good herbicidal activity
Cn1nc(C(F)(F)F)c(C(Br)S(=O)(=O)C2=NOC(C)(C)C2)c1OC(F)F (stereo not drawn) [I-275.1],did not cause any damage,very good herbicidal activity,very good herbicidal activity
Cn1nc(C(F)(F)F)c(C(Cl)[S+]([O-])C2=NOC(C)(C)C2)c1OC(F)F (stereo not drawn) [I-289.1],did not cause any damage,very good herbicidal activity,very good herbicidal activity
